The source of these data is patent US10167256B2, “Psychotrophic agents and uses thereof” (LB PHARMACEUTICALS INC., priority 2016, dated 2019).

For series [1] the following is noted: PAMPA. In general terms: In PAMPA a lipid-coated filter parts donor from acceptor wells.
Series [2] has as its target D1 receptor (Homo sapiens (Human), UniProt P21728). To be noted: cited from earlier work.
For series [3], the target named is D4 receptor (Homo sapiens (Human), UniProt P21917). Conditions: cited from earlier work.
Sequence of D4 receptor (P21917 whole entry): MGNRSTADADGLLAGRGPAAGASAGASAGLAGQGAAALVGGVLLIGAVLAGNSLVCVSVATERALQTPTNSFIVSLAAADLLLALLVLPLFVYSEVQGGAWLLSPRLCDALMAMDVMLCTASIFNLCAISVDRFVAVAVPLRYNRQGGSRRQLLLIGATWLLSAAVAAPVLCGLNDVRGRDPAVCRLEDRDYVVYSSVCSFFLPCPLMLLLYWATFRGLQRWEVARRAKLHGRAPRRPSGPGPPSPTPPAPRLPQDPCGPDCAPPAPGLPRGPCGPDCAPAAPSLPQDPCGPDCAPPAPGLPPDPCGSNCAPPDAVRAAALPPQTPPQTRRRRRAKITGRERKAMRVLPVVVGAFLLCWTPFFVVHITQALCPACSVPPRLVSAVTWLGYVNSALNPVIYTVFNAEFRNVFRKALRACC
Series [4] addresses D5 receptor (Homo sapiens (Human), UniProt P21918). Conditions: cited from earlier work.
Series [5] concerns the target 5-HT2a receptor (Homo sapiens (Human), UniProt P28223). Conditions: cited from earlier work.
Series [6] relates to serotonin receptor subtypes. Conditions: cited from earlier work.
Series [7] deals with alpha-adrenergic receptor subtypes. Conditions: cited from earlier work.
Series [8] has as its system histamine receptor subtypes. Conditions: cited from earlier work.
Series [9] concerns muscarinic receptors. Conditions: cited from earlier work.
The test system of series [10] is sigma sites. To be noted: cited from earlier work.
For series [11] the following is noted: 2014 study, 30 psychiatric drugs; cited from earlier work.
Series [12] can be described thus: in vitro. Conditions: PAMPA.
For series [13], the target named is T1, dopamine D2 receptors (Homo sapiens (Human), UniProt P14416). In words: Dopamine D2 receptor cell-based assay (calcium fluorescence, dopamine at EC80).
T1 sequence (P14416 whole entry): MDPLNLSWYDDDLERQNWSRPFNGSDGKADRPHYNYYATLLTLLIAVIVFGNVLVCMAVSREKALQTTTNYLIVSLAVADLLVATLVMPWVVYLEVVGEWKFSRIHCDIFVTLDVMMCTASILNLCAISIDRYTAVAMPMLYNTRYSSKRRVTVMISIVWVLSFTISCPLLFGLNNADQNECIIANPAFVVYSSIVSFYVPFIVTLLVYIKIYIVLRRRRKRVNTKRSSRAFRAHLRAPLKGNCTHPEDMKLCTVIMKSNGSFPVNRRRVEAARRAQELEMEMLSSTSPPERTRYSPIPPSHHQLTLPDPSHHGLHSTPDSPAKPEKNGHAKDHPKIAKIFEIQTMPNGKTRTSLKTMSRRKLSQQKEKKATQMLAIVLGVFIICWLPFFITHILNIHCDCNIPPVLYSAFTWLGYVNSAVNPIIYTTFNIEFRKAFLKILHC
Method: Dopamine D2 receptor cells were seeded in a half a black, clear-bottomed 96 well plate. At a density of 15,000 cells/well to a volume of 25 μL and were left to incubate overnight. Calcium 5 dye in HEPES buffered HBSS (Hanks' balanced salt solution) was prepared and 10 μL was added to each well and the mixture was left to sit at 37° C. for 1 hour. After equilibration, 5 μL of the test compound and controls were added to the wells and incubated at room temperature for 10 minutes.
For series [14], the target named is T1, dopamine D2 receptors. In words: Dopamine D2 receptor membrane preparation, 3H spiperone binding. To be noted: membrane based assay, 0.1 nM 3H spiperone. The protocol: Radioactivity was measured using a Packard Topcount.
Series [15] has as its target α2 (non-selective). In words: Reference ligand displacement, α2 (non-selective). Type of series: binding. Conditions: α-2A (non-selective); reference ligand prazosin. The protocol:
(§1) The ability of Compound 102 and 103 to bind α2 (non-selective), α2A, α2B, α2C, 5-HT2A (agonist), 5-HT2A (antagonist), D2L, D2S, and D3 was measured at concentrations ranging from 10×10^−5 to 10×10^−9 M and measuring displacement of reference ligands (prazosin for α2 (non-selective), yohimbine for α2A, α2B and α2C, DOI ([2,5-dimethoxy-4-iodophenyl]-2-aminopropane) for 5-HT2A (agonist), ketanserine for 5-HT2A (antagonist), butaclamol for D2L, 7-OH-DPAT for D2S, and (+) blutaclamol for D3). bound to the respective isolated receptor.

The target of series [16] is α-2A(h) (Homo sapiens (Human), UniProt P08913). Kind of series: Reference ligand displacement, α2A. Conditions: yohimbine. The format is binding. The protocol: as §1
Sequence of α-2A(h) (P08913 whole entry): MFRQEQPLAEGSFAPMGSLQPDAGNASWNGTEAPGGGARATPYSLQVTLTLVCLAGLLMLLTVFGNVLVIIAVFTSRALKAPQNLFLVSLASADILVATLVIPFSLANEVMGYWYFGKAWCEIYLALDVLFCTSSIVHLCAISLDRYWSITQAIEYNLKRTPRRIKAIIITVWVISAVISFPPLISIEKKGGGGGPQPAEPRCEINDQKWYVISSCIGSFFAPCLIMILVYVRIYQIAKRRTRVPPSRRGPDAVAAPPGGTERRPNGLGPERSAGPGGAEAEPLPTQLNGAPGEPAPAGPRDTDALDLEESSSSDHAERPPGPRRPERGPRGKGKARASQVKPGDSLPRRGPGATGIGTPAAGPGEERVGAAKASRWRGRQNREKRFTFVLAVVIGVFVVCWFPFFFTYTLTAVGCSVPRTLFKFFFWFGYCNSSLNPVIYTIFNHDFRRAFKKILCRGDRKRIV
The target of series [17] is α-2B(h) (Homo sapiens (Human), UniProt P18089). In words: Reference ligand displacement, α2B. To be noted: yohimbine. The format is binding. The protocol:
as §1

The target in series [18] is α-2C(h) (Homo sapiens (Human), UniProt P18825). In words: Reference ligand displacement, α2C. The format is binding. Conditions: yohimbine. The protocol: as §1
Sequence of α-2C(h) (P18825 whole entry): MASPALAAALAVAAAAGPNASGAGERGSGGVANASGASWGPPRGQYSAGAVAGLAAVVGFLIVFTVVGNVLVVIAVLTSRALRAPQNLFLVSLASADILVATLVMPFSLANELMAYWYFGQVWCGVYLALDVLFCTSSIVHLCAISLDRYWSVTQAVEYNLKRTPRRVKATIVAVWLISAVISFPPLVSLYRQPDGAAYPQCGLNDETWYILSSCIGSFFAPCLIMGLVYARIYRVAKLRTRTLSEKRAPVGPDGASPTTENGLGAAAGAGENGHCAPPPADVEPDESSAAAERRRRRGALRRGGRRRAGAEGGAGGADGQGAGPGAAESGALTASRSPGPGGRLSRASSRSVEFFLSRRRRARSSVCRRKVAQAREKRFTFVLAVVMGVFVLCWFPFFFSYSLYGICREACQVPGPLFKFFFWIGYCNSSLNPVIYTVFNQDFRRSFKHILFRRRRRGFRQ
For series [19], the target named is 5-HT2a (agonist) (Homo sapiens (Human), UniProt P28223). In words: Reference ligand displacement, 5-HT2A (agonist). Type of series: binding. To be noted: DOI. The protocol:
as §1

In series [20] the target is 5-HT2a (antagonist) (Homo sapiens (Human), UniProt P28223). Kind of series: Reference ligand displacement, 5-HT2A (antagonist). Type of series: binding. Conditions: ketanserine. The protocol: as §1
Sequence of 5-HT2a (antagonist) (P28223 whole entry, species assumed): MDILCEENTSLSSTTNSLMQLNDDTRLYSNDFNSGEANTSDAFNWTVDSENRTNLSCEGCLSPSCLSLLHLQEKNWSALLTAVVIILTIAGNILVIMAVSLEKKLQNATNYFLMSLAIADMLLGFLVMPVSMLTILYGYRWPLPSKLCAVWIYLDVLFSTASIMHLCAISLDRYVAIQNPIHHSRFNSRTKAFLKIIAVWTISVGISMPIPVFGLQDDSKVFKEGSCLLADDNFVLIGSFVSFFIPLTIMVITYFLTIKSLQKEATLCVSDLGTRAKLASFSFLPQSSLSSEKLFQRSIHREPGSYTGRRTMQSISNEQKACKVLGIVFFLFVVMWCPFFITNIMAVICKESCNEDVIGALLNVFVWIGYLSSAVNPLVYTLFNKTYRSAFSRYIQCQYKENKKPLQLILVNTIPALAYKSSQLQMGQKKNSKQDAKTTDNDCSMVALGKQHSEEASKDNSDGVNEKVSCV
For series [21], the target named is 5-HT7 (Homo sapiens (Human), UniProt P34969). In words: Reference ligand displacement, 5-HT7. The format is binding.
Sequence of 5-HT7 (P34969 whole entry, species assumed): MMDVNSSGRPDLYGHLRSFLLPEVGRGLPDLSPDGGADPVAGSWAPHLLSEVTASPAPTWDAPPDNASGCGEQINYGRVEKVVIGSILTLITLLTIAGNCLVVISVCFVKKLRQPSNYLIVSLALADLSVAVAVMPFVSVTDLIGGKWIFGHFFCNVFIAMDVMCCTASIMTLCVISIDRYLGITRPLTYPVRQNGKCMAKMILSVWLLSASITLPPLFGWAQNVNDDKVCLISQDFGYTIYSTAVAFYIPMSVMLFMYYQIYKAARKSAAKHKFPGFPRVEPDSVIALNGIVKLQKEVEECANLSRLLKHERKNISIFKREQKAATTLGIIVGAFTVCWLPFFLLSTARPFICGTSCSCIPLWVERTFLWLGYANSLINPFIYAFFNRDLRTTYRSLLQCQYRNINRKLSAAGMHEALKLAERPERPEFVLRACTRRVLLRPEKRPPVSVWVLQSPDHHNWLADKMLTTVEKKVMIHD
The target of series [22] is D2L (Homo sapiens (Human), UniProt P14416). In words: Reference ligand displacement, D2L. Type of series: binding. Conditions: butaclamol. The protocol:
as §1

The target in series [23] is D2S (Homo sapiens (Human), UniProt P14416). In words: Reference ligand displacement, D2S. The format is binding. To be noted: 7-OH-DPAT. The protocol: as §1
Sequence of D2S (P14416 other isoform, or with tags, fused parts or gaps): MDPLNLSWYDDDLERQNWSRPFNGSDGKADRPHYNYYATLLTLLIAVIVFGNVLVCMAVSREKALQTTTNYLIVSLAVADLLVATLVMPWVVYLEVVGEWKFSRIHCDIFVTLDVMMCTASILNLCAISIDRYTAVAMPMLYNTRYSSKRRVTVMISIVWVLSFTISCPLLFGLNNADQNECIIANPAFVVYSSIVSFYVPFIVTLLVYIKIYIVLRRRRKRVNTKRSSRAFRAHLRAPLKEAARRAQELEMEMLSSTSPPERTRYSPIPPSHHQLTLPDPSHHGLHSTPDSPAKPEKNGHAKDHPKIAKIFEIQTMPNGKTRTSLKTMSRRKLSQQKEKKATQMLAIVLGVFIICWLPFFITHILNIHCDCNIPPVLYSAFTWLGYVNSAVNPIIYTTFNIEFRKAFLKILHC
The target in series [24] is D3 (Homo sapiens (Human), UniProt P35462). Kind of series: Reference ligand displacement, D3. Type of series: binding. To be noted: (+) butaclamol. The protocol:
as §1

Series [25] concerns PCP-treated rats. In words: Novel Object Recognition (NOR) assay, sub-chronic PCP. The format is in vivo. Conditions: PO; for difference between novel and familiar object exploration time: 3 hours post-dose, all doses save one; for known object exploration behavior in rats treated with PCP: compared with untreated rats, amisulpride and risperidone. The protocol: Efficacy of Compounds 102 and 103 was evaluated in rats in a Novel Object Recognition (NOR) assay, a well-established model recapitulating cognitive and negative aspects of the PANSS scale of schizophrenia. In this assay, animals were treated for several weeks with a low dose of phencyclidine (PCP) to impair the ability of the rat to discern between novel and familiar objects. Typically rats, like humans, would spend more time exploring a novel object than a familiar one.
Rats (n=10/group) were dosed with 2 mg/kg intraperitoneal twice a day (i.p., b.i.d.) for seven days followed by 7 days drug free. […] Novel object exploration time was measured for the test subjects from a sub-chronic PCP NOR study in rats (n=10/group). The differences in exploration time between novel (Tnovel¬) and familiar (Tfamliar) objects are depicted in FIG. 1A (*: p<0.05; and *: p<0.01).

The test system of series [26] is rats dosed with amphetamine. In words: Amphetamine-induced Locomotor Activity (LMA) assay. Type of series: in vivo. To be noted: 30 mg/kg orally, 6 hours post dosing, total ambulatory distance over 1 hour. The protocol:
Efficacy of Compounds 102 and 103 was studied in rats in an amphetamine-induced Locomotor Activity (LMA) assay, a measure of positive aspects of the PANSS scale. In the LMA assay rats were dosed with amphetamine (Amp, 1 mg/kg, s.c.), causing excessive movement, in a cage with sensors that monitored how far each rat moved.
Distance moved, over the course of an hour, was measured 6 hours post dosing for Compounds 102 and 103 and amisulpride-risperidone was dosed 1 hour prior to measurement. The endpoint of this study was total ambulatory distance (the distance traveled by each animal in the cage). Total ambulatory distance data from this amphetamine induced LMA study are summarized in FIG. 2 (*: p<0.01; *: p<0.05).

Sequence of 5-HT2a (agonist) (P28223 whole entry, species assumed): as the sequence (P28223 whole entry, species assumed) above
Sequence of D3 (P35462 whole entry): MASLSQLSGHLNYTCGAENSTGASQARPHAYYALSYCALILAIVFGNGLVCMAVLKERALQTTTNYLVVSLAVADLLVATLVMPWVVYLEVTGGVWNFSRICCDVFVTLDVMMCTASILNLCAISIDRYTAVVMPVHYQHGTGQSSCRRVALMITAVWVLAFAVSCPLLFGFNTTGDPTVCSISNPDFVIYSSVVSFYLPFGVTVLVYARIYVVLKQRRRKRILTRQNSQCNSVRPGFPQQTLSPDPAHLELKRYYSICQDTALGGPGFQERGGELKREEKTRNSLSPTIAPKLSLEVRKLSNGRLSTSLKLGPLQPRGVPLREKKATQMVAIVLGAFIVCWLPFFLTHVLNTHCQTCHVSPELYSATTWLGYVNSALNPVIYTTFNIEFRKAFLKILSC
Sequence of D2L (P14416 whole entry): as the sequence (P14416 whole entry) above
Sequence of α-2B(h) (P18089 whole entry): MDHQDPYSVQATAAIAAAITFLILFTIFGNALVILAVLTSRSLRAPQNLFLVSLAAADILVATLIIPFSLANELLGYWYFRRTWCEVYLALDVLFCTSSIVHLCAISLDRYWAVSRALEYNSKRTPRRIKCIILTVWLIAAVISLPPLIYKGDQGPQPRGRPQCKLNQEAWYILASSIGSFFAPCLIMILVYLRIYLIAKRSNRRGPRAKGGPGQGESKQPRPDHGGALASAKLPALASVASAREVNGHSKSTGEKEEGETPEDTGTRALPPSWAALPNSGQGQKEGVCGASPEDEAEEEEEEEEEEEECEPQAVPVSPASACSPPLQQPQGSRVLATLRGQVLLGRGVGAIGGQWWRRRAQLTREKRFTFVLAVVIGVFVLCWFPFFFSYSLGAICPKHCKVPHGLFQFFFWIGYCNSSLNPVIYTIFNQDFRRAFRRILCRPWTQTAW
Sequence of D1 receptor (P21728 whole entry): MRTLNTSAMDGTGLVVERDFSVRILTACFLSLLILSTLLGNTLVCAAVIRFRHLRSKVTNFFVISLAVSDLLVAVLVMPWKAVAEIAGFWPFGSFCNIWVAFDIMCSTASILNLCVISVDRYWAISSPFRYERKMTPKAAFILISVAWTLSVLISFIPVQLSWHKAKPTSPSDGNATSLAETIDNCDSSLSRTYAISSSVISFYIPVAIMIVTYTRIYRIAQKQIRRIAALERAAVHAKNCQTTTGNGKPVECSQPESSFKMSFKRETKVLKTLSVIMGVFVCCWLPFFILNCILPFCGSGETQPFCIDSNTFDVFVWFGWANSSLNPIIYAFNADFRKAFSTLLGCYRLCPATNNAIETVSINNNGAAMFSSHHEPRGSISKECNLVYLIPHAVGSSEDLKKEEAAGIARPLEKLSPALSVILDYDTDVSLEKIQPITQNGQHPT

For `CCN1CCCC1CNC(=O)c1cc(S(=O)(=O)CC)c(N)cc1OC` (stereo not shown) [Amisulpride, 4-amino-N-(((1-ethyl-2-pyrrolidinyl)methyl)-5-(ethylsulfonyl))-2-methoxybenzamide], the “Permeability (cm/s) pH 7.4” value in series [1] was 2.4 × 10^−11 cm/s. For the same compound, the “affinity for D1 receptor subtype” value in series [2] is “without any affinity”. Moreover, the “affinity for D4 receptor subtype” value in [3] is “without any affinity”. Further, the “affinity for D5 receptor subtype” value in series [4] is reported as “without any affinity”. The “activity at the 5-HT2a receptor” value in series [5] is “not noted to have any activity”. Further, the “affinity for serotonin receptor subtypes” value in series [6] is recorded as “low affinity”. In addition, the “affinity for alpha-adrenergic receptor subtypes” value in [7] is “low affinity”. The “affinity for histamine receptor subtypes” value in series [8] was “low affinity”. For the same compound, the “affinity for muscarinic receptors” value in [9] was “low affinity”. Besides, the “affinity for sigma sites” value in [10] is listed as “low affinity”. The “passive diffusion across a PAMPA membrane (Pe)” value in [11] is recorded as “lowest of 30 psychiatric drugs tested”. In series [12] (pH 5), this compound had a Papp of 0.0024 nm/s.
For the compound `CCN1CCCC1CNC(=O)c1cc(S(=O)(=O)CC)c(NC)cc1OC` (stereo not shown) [Compound 102], the IC50 was 0.0089 µM in [13]; 0.0082 µM in series [14]; 0.095 µM in [15]; 0.48 µM in series [16]; 0.17 µM in [17]; 0.79 µM in series [18]. Besides, the IC50 amounted to 0.27 µM in series [19]; 0.89 µM in [20]; 0.074 µM in series [21]; 0.0027 µM in series [22]; 0.0084 µM in series [23]; 0.011 µM in [24]. Besides, the Ki is 0.041 µM in [15]; 0.22 µM in series [16]; 0.11 µM in series [17]; 0.24 µM in series [18]; 0.2 µM in series [19]; 0.49 µM in [20]. The Ki in series [21] stood at 0.027 µM; in series [22] it was 0.00066 µM; in [23], 0.0034 µM; in series [24], 0.0025 µM. Also, the “difference between novel and familiar object exploration time” value in series [25] is “increased the difference between novel and familiar object exploration time”. For the same compound, the “known object exploration behavior in rats treated with PCP” value in [25] was “able to restore known object exploration behavior in rats treated with PCP to levels similar to untreated rats”. In series [26], the “normalized amphetamine hyperactivity compared to amisulpride” value is “statistically superior to that of amisulpride”. For the same compound, the Papp in series [12] (pH 5) turned out to be 0.21 nm/s; in series [12] (pH 7.4), 0.052 nm/s.
In the case of `CCN1CCC[C@H]1CNC(=O)c1cc(S(=O)(=O)CC)c(NC)cc1OC` [Compound 103, ((S)-4-methylamino-N-((1-ethyl-2-pyrrolidinyl)methyl)-5-(ethylsulfonyl))-2-methoxybenzamide], the IC50 in series [15] turned out to be 0.15 µM; in [19], 0.55 µM; in series [20], 0.98 µM; in series [22], 0.0017 µM; in series [23] it was 0.0014 µM; in series [24], 0.0055 µM. The Ki in [15] is 0.0067 µM; in series [19], 0.41 µM; in series [20], 0.53 µM; in series [22] it was 0.00041 µM; in series [23] it was 0.00056 µM; in series [24] it was 0.0012 µM. The “difference between novel and familiar object exploration time” value in [25] is “increased the difference between novel and familiar object exploration time”. Besides, the “known object exploration behavior in rats treated with PCP” value in [25] is reported as “able to restore known object exploration behavior in rats treated with PCP to levels similar to untreated rats”. Moreover, the “normalized amphetamine hyperactivity compared to amisulpride” value in series [26] was “statistically indistinguishable from that of amisulpride”.
For the compound `CC(C)NCC(O)COc1cccc2ccccc12` (stereo not shown) [Promanolol, propanolol], the Papp in [12] (pH 5) stood at 0.31 nm/s; in series [12] (pH 7.4), 78 nm/s.
With `CNC(=C[N+](=O)[O-])NCCSCc1ccc(CN(C)C)o1` [Ranitidine, ranitidine], the “Permeability (cm/s) pH 5” value in series [1] (pH 5) was 1.1 × 10^−10 cm/s. In addition, the “Permeability (cm/s) pH 7.4” value in series [1] is given as 1.5 × 10^−10 cm/s.

A word on the Papp: it is a coefficient for how fast a substance crosses the barrier. High values mean fast passage, low ones slow passage. For orientation: IC50 means the concentration at which inhibition is half-maximal. One may read the Ki as the dissociation constant of the complex between target and ligand, obtained from inhibition or displacement.
